Source: ChEMBL document CHEMBL2440027, “Further SAR studies on bicyclic basic merbarone analogues as potent antiproliferative agents” (Bioorg Med Chem, 2013)

Legend:
DU-145 [1] = assay: Growth inhibition of human DU145 cells after 48 hrs by sulforhodamine B assay; format: functional; conditions: DU-145, 48 h; for CC50: read-out: LC50 (the source's name)
SNB-75 = assay: Growth inhibition of human SNB75 cells after 48 hrs by sulforhodamine B assay; format: functional; conditions: SNB-75, 48 h
RPMI-8226 [2] = assay: Growth inhibition of human RPMI8226 cells assessed as cell growth at 10 uM after 48 hrs by sulforhodamine B assay relative to control; format: functional; conditions: RPMI-8226, 48 h, read-out: Activity
RXF 393 = assay: Growth inhibition of human RXF393 cells assessed as cell growth at 10 uM after 48 hrs by sulforhodamine B assay relative to control; format: functional; conditions: RXF 393, 48 h, read-out: Activity
[3] = Growth inhibition of human HCC2998 cells after 48 hrs by sulforhodamine B assay; format: functional; conditions: HCC 2998, 48 h
TK-10 = assay: Growth inhibition of human TK10 cells assessed as cell growth at 10 uM after 48 hrs by sulforhodamine B assay relative to control; format: functional; conditions: TK-10, 48 h, read-out: Activity
HOP-62 [4] = assay: Growth inhibition of human HOP62 cells after 48 hrs by sulforhodamine B assay; format: functional; conditions: HOP-62, 48 h
PC-3 = assay: Growth inhibition of human PC3 cells after 48 hrs by sulforhodamine B assay; format: functional; conditions: PC-3, 48 h
SK-OV-3 [5] = assay: Growth inhibition of human SKOV3 cells assessed as cell growth at 10 uM after 48 hrs by sulforhodamine B assay relative to control; format: functional; conditions: SK-OV-3, 48 h, read-out: Activity
HOP-62 [6] = assay: Growth inhibition of human HOP62 cells assessed as cell growth at 10 uM after 48 hrs by sulforhodamine B assay relative to control; format: functional; conditions: HOP-62, 48 h, read-out: Activity
SK-MEL-5 = assay: Growth inhibition of human SK-MEL-5 cells after 48 hrs by sulforhodamine B assay; format: functional; conditions: SK-MEL-5, 48 h
SK-MEL-2 = assay: Growth inhibition of human SK-MEL-2 cells after 48 hrs by sulforhodamine B assay; format: functional; conditions: SK-MEL-2, 48 h
NCI-H226 = assay: Growth inhibition of human NCI-H226 cells after 48 hrs by sulforhodamine B assay; format: functional; conditions: NCI-H226, 48 h
A549 = assay: Growth inhibition of human A549/ATCC cells assessed as cell growth at 10 uM after 48 hrs by sulforhodamine B assay relative to control; format: functional; conditions: A549, 48 h, read-out: Activity
OVCAR-3 = assay: Growth inhibition of human OVCAR3 cells assessed as cell growth at 10 uM after 48 hrs by sulforhodamine B assay relative to control; format: functional; conditions: OVCAR-3, 48 h, read-out: Activity
SNB-19 = assay: Growth inhibition of human SNB19 cells assessed as cell growth at 10 uM after 48 hrs by sulforhodamine B assay relative to control; format: functional; conditions: SNB-19, 48 h, read-out: Activity
SF-539 = assay: Growth inhibition of human SF539 cells after 48 hrs by sulforhodamine B assay; format: functional; conditions: SF-539, 48 h; for CC50: read-out: LC50 (the source's name)
HL-60(TB) = assay: Growth inhibition of human HL-60(TB) cells assessed as cell growth at 10 uM after 48 hrs by sulforhodamine B assay relative to control; format: functional; conditions: HL-60, 48 h, read-out: Activity
DU-145 [7] = assay: Growth inhibition of human DU145 cells assessed as cell growth at 10 uM after 48 hrs by sulforhodamine B assay relative to control; format: functional; conditions: DU-145, 48 h, read-out: Activity
MT4 = assay: Cytotoxicity against human MT4 cells; format: functional, cell-based
HCT-116 = assay: Growth inhibition of human HCT116 cells assessed as cell growth at 10 uM after 48 hrs by sulforhodamine B assay relative to control; format: functional; conditions: HCT-116, 48 h, read-out: Activity
MOLT-4 = assay: Growth inhibition of human MOLT4 cells after 48 hrs by sulforhodamine B assay; format: functional; conditions: MOLT-4, 48 h
SF-295 = assay: Growth inhibition of human SF295 cells assessed as cell growth at 10 uM after 48 hrs by sulforhodamine B assay relative to control; format: functional; conditions: SF-295, 48 h, read-out: Activity
HCT-15 = assay: Growth inhibition of human HCT15 cells assessed as cell growth at 10 uM after 48 hrs by sulforhodamine B assay relative to control; format: functional; conditions: HCT-15, 48 h, read-out: Activity
RPMI-8226 [8] = assay: Growth inhibition of human RPMI8226 cells after 48 hrs by sulforhodamine B assay; format: functional; conditions: RPMI-8226, 48 h; for CC50: read-out: LC50 (the source's name)
786-0 = assay: Growth inhibition of human 786-0 cells after 48 hrs by sulforhodamine B assay; format: functional; conditions: 786-0, 48 h
[9] = Growth inhibition of human Hs 578T cells assessed as cell growth at 10 uM after 48 hrs by sulforhodamine B assay relative to control; format: functional; conditions: read-out: Activity
A498 = assay: Growth inhibition of human A498 cells assessed as cell growth at 10 uM after 48 hrs by sulforhodamine B assay relative to control; format: functional; conditions: A498, 48 h, read-out: Activity
SF-268 = assay: Growth inhibition of human SF268 cells assessed as cell growth at 10 uM after 48 hrs by sulforhodamine B assay relative to control; format: functional; conditions: SF-268, 48 h, read-out: Activity
K562 = assay: Growth inhibition of human K562 cells assessed as cell growth at 10 uM after 48 hrs by sulforhodamine B assay relative to control; format: functional; conditions: K562, 48 h, read-out: Activity
T47D [10] = assay: Growth inhibition of human T47D cells after 48 hrs by sulforhodamine B assay; format: functional
T47D [11] = assay: Growth inhibition of human T47D cells assessed as cell growth at 10 uM after 48 hrs by sulforhodamine B assay relative to control; format: functional; conditions: read-out: Activity
NCI-H522 = assay: Growth inhibition of human NCI-H522 cells after 48 hrs by sulforhodamine B assay; format: functional; conditions: NCI-H522, 48 h; for CC50: read-out: LC50 (the source's name)
SK-OV-3 [12] = assay: Growth inhibition of human SKOV3 cells after 48 hrs by sulforhodamine B assay; format: functional; conditions: SK-OV-3, 48 h; for CC50: read-out: LC50 (the source's name)

CN(C)CCNc1nc2c(c(=N)n1-c1ccccc1)c(=S)n(-c1ccccc1)c(=S)n2-c1ccccc1
GI50 (DU-145 [1]): 5.3 µM
TGI (DU-145 [1]): 18.8 µM
CC50 (DU-145 [1]): 48.8 µM
GI50 (SNB-75): 2.4 µM
LC50 (SNB-75): 31.9 µM
TGI (SNB-75): 7.5 µM
growth at 10 µM (RPMI-8226 [2]): -4.62%
growth at 10 µM (RXF 393): -39.1%
GI50 [3]: 2.3 µM
LC50 [3]: 43 µM
TGI [3]: 6.8 µM
growth at 10 µM (TK-10): 47.7%
GI50 (HOP-62 [4]): 2.9 µM
LC50 (HOP-62 [4]): 55.6 µM
TGI (HOP-62 [4]): 10.1 µM
GI50 (PC-3): 4 µM
LC50 (50% lethal concentration) (PC-3): 51.9 µM
TGI (PC-3): 17.9 µM
growth at 10 µM (SK-OV-3 [5]): 76.3%
growth at 10 µM (HOP-62 [6]): 6.19%
GI50 (SK-MEL-5): 1.6 µM
LC50 (SK-MEL-5): 6.1 µM
TGI (SK-MEL-5): 3.1 µM
GI50 (SK-MEL-2): 1.7 µM
LC50 (SK-MEL-2): 6.7 µM
TGI (SK-MEL-2): 3.4 µM
GI50 (NCI-H226): 11.6 µM
LC50 (NCI-H226): 59.5 µM
TGI (NCI-H226): 26.3 µM
growth at 10 µM (A549): 35.4%
growth at 10 µM (OVCAR-3): -48.7%
growth at 10 µM (SNB-19): 26.1%
GI50 (SF-539): 1.8 µM
TGI (SF-539): 3.5 µM
CC50 (SF-539): 7 µM
growth at 10 µM (HL-60(TB)): 36.6%
growth at 10 µM (DU-145 [7]): 45%
IC50 (MT4): 8.4 µM
growth at 10 µM (HCT-116): -22.1%
GI50 (MOLT-4): 1.8 µM
LC50 (MOLT-4): 17.2 µM
TGI (MOLT-4): 4.7 µM
growth at 10 µM (SF-295): -61.5%
growth at 10 µM (HCT-15): 18.8%
GI50 (RPMI-8226 [8]): 0.4 µM
TGI (RPMI-8226 [8]): 2.2 µM
CC50 (RPMI-8226 [8]): 7.3 µM
GI50 (786-0): 1.4 µM
LC50 (786-0): 21.4 µM
TGI (786-0): 4.3 µM
growth at 10 µM [9]: 12.3%
growth at 10 µM (A498): 40.3%
growth at 10 µM (SF-268): 24%
growth at 10 µM (K562): -11.4%
GI50 (T47D [10]): 2.1 µM
LC50 (T47D [10]): 30.5 µM
TGI (T47D [10]): 5.4 µM
growth at 10 µM (T47D [11]): -19.4%
GI50 (NCI-H522): 2.1 µM
TGI (NCI-H522): 5.4 µM
CC50 (NCI-H522): 27.6 µM
GI50 (SK-OV-3 [12]): 10.3 µM
TGI (SK-OV-3 [12]): 24.1 µM
CC50 (SK-OV-3 [12]): 56.7 µM

CCCCN(CCCC)CCCNc1nc2c(c(=N)n1-c1ccccc1)c(=S)n(-c1ccccc1)c(=S)n2-c1ccccc1
GI50 (DU-145 [1]): 1.1 µM
TGI (DU-145 [1]): 2.3 µM
CC50 (DU-145 [1]): 4.8 µM
GI50 (SNB-75): 0.4 µM
LC50 (SNB-75): 4.1 µM
TGI (SNB-75): 1.6 µM
growth at 10 µM (RPMI-8226 [2]): -53.4%
growth at 10 µM (RXF 393): -67.7%
GI50 [3]: 0.4 µM
LC50 [3]: 4.7 µM
TGI [3]: 1.8 µM
growth at 10 µM (TK-10): -89.6%
GI50 (HOP-62 [4]): 1.2 µM
LC50 (HOP-62 [4]): 5.4 µM
TGI (HOP-62 [4]): 2.6 µM
GI50 (PC-3): 0.6 µM
LC50 (50% lethal concentration) (PC-3): 4.6 µM
TGI (PC-3): 1.9 µM
growth at 10 µM (SK-OV-3 [5]): -86.5%
growth at 10 µM (HOP-62 [6]): -99.5%
GI50 (SK-MEL-5): 0.9 µM
LC50 (SK-MEL-5): 4.6 µM
TGI (SK-MEL-5): 2.1 µM
GI50 (SK-MEL-2): 1.7 µM
LC50 (SK-MEL-2): 6.9 µM
TGI (SK-MEL-2): 3.5 µM
GI50 (NCI-H226): 1.4 µM
LC50 (NCI-H226): 5.5 µM
TGI (NCI-H226): 2.8 µM
growth at 10 µM (A549): -38.4%
growth at 10 µM (OVCAR-3): -100%
growth at 10 µM (SNB-19): -87.4%
GI50 (SF-539): 1.2 µM
TGI (SF-539): 2.7 µM
CC50 (SF-539): 5.7 µM
growth at 10 µM (HL-60(TB)): -74.8%
growth at 10 µM (DU-145 [7]): -100%
IC50 (MT4): 1.6 µM
growth at 10 µM (HCT-116): -25%
GI50 (MOLT-4): 0.3 µM
growth at 10 µM (SF-295): -100%
growth at 10 µM (HCT-15): -73.3%
GI50 (RPMI-8226 [8]): 0.2 µM
TGI (RPMI-8226 [8]): 0.3 µM
CC50 (RPMI-8226 [8]): 0.7 µM
GI50 (786-0): 0.2 µM
LC50 (786-0): 0.8 µM
TGI (786-0): 0.4 µM
growth at 10 µM [9]: -64.6%
growth at 10 µM (A498): -100%
growth at 10 µM (SF-268): -94%
growth at 10 µM (K562): -90.3%
GI50 (T47D [10]): 0.2 µM
LC50 (T47D [10]): 8.3 µM
TGI (T47D [10]): 0.5 µM
growth at 10 µM (T47D [11]): -62.1%
GI50 (NCI-H522): 0.2 µM
TGI (NCI-H522): 1.3 µM
CC50 (NCI-H522): 5.1 µM
GI50 (SK-OV-3 [12]): 1.5 µM
TGI (SK-OV-3 [12]): 2.9 µM
CC50 (SK-OV-3 [12]): 5.8 µM
